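1) Cells in 96-well plates. 2) Compound, 48 h, 5 concentrations. 3) Linear interpolation between surrounding doses. 4) Unreached endpoint = highest concentration. GI50: concentration for 50% inhibition of growth.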 The source made the active and inactive calls. Cut-off read from the data, not from the text of the source: active = GI50 up to about 1.1 µM and inactive = higher.
Assays:
Assay in all cases: NCI anticancer screen, dose series, 48 h
DLD-1 = test system: DLD-1
DMS-273 = test system: DMS-273
LXFL 529 = test system: LXFL 529
M19-MEL = test system: M19-MEL
RXF 631 = test system: RXF 631
XF498 = test system: XF498
HOP-18 = test system: HOP-18
MDA-N = test system: MDA-N

| SMILES | GI50 (DLD-1) | GI50 (DMS-273) | GI50 (LXFL 529) | GI50 (M19-MEL) | GI50 (RXF 631) | GI50 (XF498) | GI50 (HOP-18) | GI50 (MDA-N) |
| --- | --- | --- | --- | --- | --- | --- | --- | --- |
| CN(C)CC[N+]1=Nc2cccc3cccc(c23)N1 | > 44.4 µM (inactive) | 17.7 µM (inactive) | 58.1 µM (inactive) | 47.1 µM (inactive) | 44.5 µM (inactive) | > 86.3 µM (inactive) |  |  |
| CCOC(=O)/C(C#N)=C\Sc1ccccc1 | 18.1 µM (inactive) | 16.3 µM (inactive) | 15 µM (inactive) | 22 µM (inactive) | 15.7 µM (inactive) | 28.1 µM (inactive) | > 100 µM (inactive) |  |
| COc1ccc2c(c1)[n+]([O-])c(-c1ccc(OC)c(OC)c1)c(N)[n+]2[O-] | 78.9 µM (inactive) | 61.5 µM (inactive) | 49.8 µM (inactive) | 54.6 µM (inactive) |  | > 100 µM (inactive) | 43.7 µM (inactive) |  |
| C[Si](C)(C)/C=C\CCCN1C(=O)CCC1=O |  |  | > 100 µM (inactive) | > 100 µM (inactive) | > 100 µM (inactive) | > 100 µM (inactive) |  |  |
| CCOC(=O)C(=Cc1cc(OC)ccc1OC)C(=O)OCC | 8.41 µM (inactive) | 3.75 µM (inactive) | 3.26 µM (inactive) | 4.07 µM (inactive) | 5.81 µM (inactive) | 11.2 µM (inactive) | 11.4 µM (inactive) |  |
| CCCCNc1nc(C#N)c(N)s1 | > 100 µM (inactive) | > 100 µM (inactive) | > 100 µM (inactive) |  | > 100 µM (inactive) | > 100 µM (inactive) |  |  |
| Fc1ccc(C2SCc3nc4ccccc4n32)cc1F (configuration not stated) | 34.2 µM (inactive) | 26.5 µM (inactive) | 23.4 µM (inactive) | 28.6 µM (inactive) | 28.8 µM (inactive) | 25.4 µM (inactive) | 60.4 µM (inactive) |  |
| COc1cc(/C=C2\[C@H]3c4c(c(OC)c(C)c(OC)c4OC)C[C@@H](C(=O)N2Cc2ccccc2)N3C(=O)OC(C)C)c(OC)c(C)c1OC | > 100 µM (inactive) | 25.9 µM (inactive) | 52.1 µM (inactive) |  | > 100 µM (inactive) |  | > 100 µM (inactive) |  |
| Cc1cc2c(c(C(=O)O)c1C)-c1cccc(F)c1C2=O | > 100 µM (inactive) | > 100 µM (inactive) | > 100 µM (inactive) | > 100 µM (inactive) | > 100 µM (inactive) | > 100 µM (inactive) |  |  |
| O=C(CC1(O)C(=O)Nc2ccc([N+](=O)[O-])cc21)c1ccncc1 (configuration not stated) | 37.4 µM (inactive) |  |  | 20.4 µM (inactive) | 20.7 µM (inactive) | 15.3 µM (inactive) | 27.8 µM (inactive) |  |
| CCCCN(CCCC)CC(C(=O)Nc1ccc([N+](=O)[O-])cc1[N+](=O)[O-])/C(C)=N\NC(=O)C[N+](C)(C)C (configuration not stated) | 69.3 µM (inactive) | 15.9 µM (inactive) | 74 µM (inactive) | > 100 µM (inactive) | 69.2 µM (inactive) | 39.3 µM (inactive) | 78.9 µM (inactive) |  |
| Cc1cc([N+](=O)[O-])ccc1NC(=O)C(=O)C(C(=O)c1ccccc1-c1ccccc1)C1OC(=O)c2ccccc21 (configuration not stated) |  | 4.99 µM (inactive) | 15.6 µM (inactive) | 12.9 µM (inactive) | 4.75 µM (inactive) | 5.93 µM (inactive) | 14.2 µM (inactive) |  |
| COC(=O)CCC(NC(=S)N/N=C(\C)c1ccco1)C(=O)OC (configuration not stated) | > 100 µM (inactive) | > 100 µM (inactive) | > 100 µM (inactive) | > 100 µM (inactive) | > 100 µM (inactive) | > 100 µM (inactive) | > 100 µM (inactive) |  |
| CN(CCO)c1nc2c(c(=O)[nH]1)CNCC2 | > 100 µM (inactive) | > 100 µM (inactive) | > 100 µM (inactive) | 80.2 µM (inactive) |  | > 100 µM (inactive) | > 100 µM (inactive) |  |
| CC(C)CCCCCCCCCCCCC(=O)NCC(=O)NC1C(C)OC(Nc2[nH]cnc3ncnc2-3)C(O)C1O (configuration not stated) | 0.01 µM (active) | < 0.01 µM (active) | 0.000588 µM (active) | < 0.01 µM (active) | 3.54e-05 µM (active) | < 0.01 µM (active) | < 0.01 µM (active) | < 0.01 µM (active) |

From ChEMBL document CHEMBL1201862, “PubChem BioAssay data set” (2004)
